Reference: publication PMC9516332 (Frontiers in Oncology, 2022)
Like-named read-outs stand apart in the source and are kept apart here.

Tests used:
[1] = molecular target: panel of 255 wild-type kinases (Homo sapiens, UniProt P51451); settings: cited from earlier work
[2] = molecular target: panel of 255 wild-type kinases (Homo sapiens, UniProt P09769); settings: cited from earlier work
[3] = molecular target: panel of 255 wild-type kinases (Homo sapiens, UniProt P53350); settings: cited from earlier work
[4] = molecular target: T1, panel of 255 wild-type kinases (Homo sapiens, UniProt Q96PY6); settings: cited from earlier work
T1 sequence (Q96PY6 1-1258): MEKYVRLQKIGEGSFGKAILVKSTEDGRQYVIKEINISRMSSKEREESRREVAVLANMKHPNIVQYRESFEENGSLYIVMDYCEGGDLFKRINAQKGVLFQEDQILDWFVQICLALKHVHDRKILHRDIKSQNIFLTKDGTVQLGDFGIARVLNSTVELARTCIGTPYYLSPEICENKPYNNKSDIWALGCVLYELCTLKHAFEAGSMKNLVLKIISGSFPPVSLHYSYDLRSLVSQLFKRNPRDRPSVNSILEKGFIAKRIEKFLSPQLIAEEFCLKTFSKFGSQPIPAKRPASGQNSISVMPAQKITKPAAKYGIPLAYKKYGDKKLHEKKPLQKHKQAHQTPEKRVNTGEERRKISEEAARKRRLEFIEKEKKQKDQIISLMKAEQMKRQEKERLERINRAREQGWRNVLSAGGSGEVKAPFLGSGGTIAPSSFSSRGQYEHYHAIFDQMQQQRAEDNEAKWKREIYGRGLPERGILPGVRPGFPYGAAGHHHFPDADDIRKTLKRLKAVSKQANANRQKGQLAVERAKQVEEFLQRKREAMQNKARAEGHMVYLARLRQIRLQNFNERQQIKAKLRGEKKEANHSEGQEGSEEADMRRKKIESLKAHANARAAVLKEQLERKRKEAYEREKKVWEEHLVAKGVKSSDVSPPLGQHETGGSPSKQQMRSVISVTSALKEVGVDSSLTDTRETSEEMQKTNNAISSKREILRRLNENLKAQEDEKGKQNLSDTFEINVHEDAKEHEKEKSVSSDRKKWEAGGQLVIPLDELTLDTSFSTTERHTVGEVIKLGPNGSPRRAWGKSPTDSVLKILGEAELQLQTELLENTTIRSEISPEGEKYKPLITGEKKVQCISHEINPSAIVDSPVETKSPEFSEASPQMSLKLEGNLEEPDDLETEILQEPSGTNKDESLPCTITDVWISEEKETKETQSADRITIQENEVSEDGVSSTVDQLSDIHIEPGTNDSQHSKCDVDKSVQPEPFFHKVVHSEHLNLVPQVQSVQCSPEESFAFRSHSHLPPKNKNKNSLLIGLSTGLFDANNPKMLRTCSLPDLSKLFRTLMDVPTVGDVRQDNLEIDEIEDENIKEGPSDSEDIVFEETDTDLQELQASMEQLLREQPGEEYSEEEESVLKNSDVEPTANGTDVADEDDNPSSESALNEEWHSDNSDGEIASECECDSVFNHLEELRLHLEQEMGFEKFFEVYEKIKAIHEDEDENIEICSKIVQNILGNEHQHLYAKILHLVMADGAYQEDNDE

[5] = molecular target: T2, panel of 255 wild-type kinases (Homo sapiens, UniProt P51955); settings: cited from earlier work
T2 sequence (P51955 1-445): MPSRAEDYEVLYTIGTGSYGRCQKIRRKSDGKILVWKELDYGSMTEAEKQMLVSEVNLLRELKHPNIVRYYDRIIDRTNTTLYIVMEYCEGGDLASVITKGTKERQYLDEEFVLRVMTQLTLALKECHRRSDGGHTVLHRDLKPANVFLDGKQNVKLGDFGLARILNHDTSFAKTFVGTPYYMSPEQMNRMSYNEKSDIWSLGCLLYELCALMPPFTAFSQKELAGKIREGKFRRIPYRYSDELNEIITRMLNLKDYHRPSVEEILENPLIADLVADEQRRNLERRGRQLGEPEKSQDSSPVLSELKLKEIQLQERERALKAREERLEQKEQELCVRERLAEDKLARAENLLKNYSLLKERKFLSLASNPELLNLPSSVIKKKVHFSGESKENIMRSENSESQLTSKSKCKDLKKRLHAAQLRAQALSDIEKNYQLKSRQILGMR

[6] = molecular target: panel of 255 wild-type kinases (Homo sapiens, UniProt P09619); settings: cited from earlier work
[7] = molecular target: panel of 255 wild-type kinases (Homo sapiens, UniProt Q9Y3S1); settings: cited from earlier work
[8] = molecular target: panel of 255 wild-type kinases (Homo sapiens, UniProt Q92918); assay: Kinase panel profiling at 1 µmol/L (MSA or IMAP), percentage inhibition; type: biochemical; settings: read-out: %-inhibition at 1 µmol/L, HPK1
[9] = BLK kinase assay, 1 µmol/L single concentration, ref DOI: 10.1158/1535-7163.MCT-18-0877
[10] = kinase FGR, 1 µmol/L single concentration, ref DOI: 10.1158/1535-7163.MCT-18-0877
[11] = kinase PLK1, 1 µmol/L single concentration, ref DOI: 10.1158/1535-7163.MCT-18-0877
[12] = NEK1, 1 µmol/L single concentration, ref DOI: 10.1158/1535-7163.MCT-18-0877
[13] = NEK2, 1 µmol/L single concentration, ref DOI: 10.1158/1535-7163.MCT-18-0877
[14] = kinase PDGFRβ, 1 µmol/L single concentration, ref DOI: 10.1158/1535-7163.MCT-18-0877
[15] = kinase WNK2, 1 µmol/L single concentration, ref DOI: 10.1158/1535-7163.MCT-18-0877
[16] = kinase HPK1, 1 µmol/L single concentration
[17] = kinase FGR, 1 µmol/L single concentration, ref DOI: 10.1371/journal.pone.0092146
[18] = kinase PLK1, 1 µmol/L single concentration, ref DOI: 10.1371/journal.pone.0092146
[19] = NEK1, 1 µmol/L single concentration, ref DOI: 10.1371/journal.pone.0092146
[20] = NEK2, 1 µmol/L single concentration, ref DOI: 10.1371/journal.pone.0092146
[21] = kinase PDGFRβ, 1 µmol/L single concentration, ref DOI: 10.1371/journal.pone.0092146
[22] = kinase WNK2, 1 µmol/L single concentration, ref DOI: 10.1371/journal.pone.0092146
[23] = BLK kinase assay, 1 µmol/L single concentration, ref DOI: 10.1371/journal.pone.0092146

CC#CC(=O)N1CCC[C@H]1c1nc(-c2ccc(C(=O)Nc3ccccn3)cc2)c2c(N)nccn12 [acalabrutinib]
%-inhibition BLK [1, 9]: 8.43% | %-inhibition at 1 µmol/L, FGR [2, 10]: 3% | %-inhibition at 1 µmol/L, PLK1 [3, 11]: -2.57% | %-inhibition, NEK1 [4, 12]: -7.46% | %-inhibition, NEK2 [5, 13]: -6.35% | %-inhibition at 1 µmol/L, PDGFRβ [6, 14]: 5.36% | %-inhibition at 1 µmol/L, WNK2 [7, 15]: 0.787%

CCc1cc2c(cc1N1CCC(N3CCOCC3)CC1)C(C)(C)c1[nH]c3cc(C#N)ccc3c1C2=O [alectinib]
%-inhibition BLK [1, 9]: 17% | %-inhibition at 1 µmol/L, FGR [2, 10]: 40% | %-inhibition at 1 µmol/L, PLK1 [3, 11]: -1.76% | %-inhibition, NEK1 [4, 12]: 5% | %-inhibition, NEK2 [5, 13]: 3.37% | %-inhibition at 1 µmol/L, PDGFRβ [6, 14]: 26% | %-inhibition at 1 µmol/L, WNK2 [7, 15]: 1.16%

Cn1cc(-c2cc3c(N4CCN(c5ncc([C@@](C)(N)c6ccc(F)cc6)cn5)CC4)ncnn3c2)cn1 [avapritinib]
inhibition at 1 µM [8, 16]: 15%

COc1cc(N2CCC(N3CCN(C)CC3)CC2)ccc1Nc1ncc(Cl)c(Nc2ccccc2P(C)(C)=O)n1 [brigatinib]
%-inhibition BLK [1]: 83% | %-inhibition at 1 µmol/L, FGR [2]: 52% | %-inhibition at 1 µmol/L, PLK1 [3]: 49% | %-inhibition, NEK1 [4]: 8% | %-inhibition, NEK2 [5]: 5.7% | %-inhibition at 1 µmol/L, PDGFRβ [6]: 94% | %-inhibition at 1 µmol/L, WNK2 [7]: 0.119%

CNC(=O)c1ccc(-c2cnc3ncc(Cc4ccc5ncccc5c4)n3n2)cc1F [capmatinib]
inhibition at 1 µM [8]: 0.392%

Cc1cc(Nc2ncc(Cl)c(Nc3ccccc3S(=O)(=O)C(C)C)n2)c(OC(C)C)cc1C1CCNCC1 [ceritinib]
%-inhibition BLK [1, 9]: 2% | %-inhibition at 1 µmol/L, FGR [2, 10]: 5% | %-inhibition, NEK1 [4, 12]: -1.68% | %-inhibition, NEK2 [5, 13]: 2% | %-inhibition at 1 µmol/L, PDGFRβ [6, 14]: 55% | %-inhibition at 1 µmol/L, WNK2 [7, 15]: -1.28%

O=C(c1ccc(F)c(F)c1Nc1ccc(I)cc1F)N1CC(O)([C@@H]2CCCCN2)C1 [cobimetinib]
%-inhibition BLK [1, 9]: 10% | %-inhibition at 1 µmol/L, FGR [2, 10]: -1.29% | %-inhibition at 1 µmol/L, PLK1 [3, 11]: -1.08% | %-inhibition, NEK1 [4, 12]: 4.29% | %-inhibition, NEK2 [5, 13]: 6.62% | %-inhibition at 1 µmol/L, PDGFRβ [6, 14]: 2% | %-inhibition at 1 µmol/L, WNK2 [7, 15]: 5%

C[C@@H](Oc1cc(-c2cnn(C3CCNCC3)c2)cnc1N)c1c(Cl)ccc(F)c1Cl [crizotinib]
%-inhibition at 1 µmol/L, FGR [2, 17]: 70% | %-inhibition at 1 µmol/L, PLK1 [3, 18]: -3% | %-inhibition, NEK1 [4, 19]: 2.24% | %-inhibition, NEK2 [5, 20]: -2.69% | %-inhibition at 1 µmol/L, PDGFRβ [6, 21]: 18% | %-inhibition at 1 µmol/L, WNK2 [7, 22]: -4%

CC(C)(C)c1nc(-c2cccc(NS(=O)(=O)c3c(F)cccc3F)c2F)c(-c2ccnc(N)n2)s1 [dabrafenib]
%-inhibition BLK [1, 23]: 80% | %-inhibition at 1 µmol/L, FGR [2, 17]: 82% | %-inhibition at 1 µmol/L, PLK1 [3, 18]: -9% | %-inhibition, NEK1 [4, 19]: 24% | %-inhibition at 1 µmol/L, WNK2 [7, 22]: 0.686%

C=CC(=O)N1CCC[C@@H](n2nc(-c3ccc(Oc4ccccc4)cc3)c3c(N)ncnc32)C1 [ibrutinib]
%-inhibition BLK [1, 9]: 101% | %-inhibition at 1 µmol/L, FGR [2, 10]: 99% | %-inhibition at 1 µmol/L, PLK1 [3, 11]: -2.28% | %-inhibition, NEK1 [4, 12]: 3.73% | %-inhibition, NEK2 [5, 13]: 6.64% | %-inhibition at 1 µmol/L, PDGFRβ [6, 14]: 55% | %-inhibition at 1 µmol/L, WNK2 [7, 15]: 5.67%

CCN1CCN(c2ccc(Nc3cc(N(C)C(=O)Nc4c(Cl)c(OC)cc(OC)c4Cl)ncn3)cc2)CC1 [infigratinib]
inhibition at 1 µM [8, 16]: 65%

O=C(Nc1cnn2ccc(N3CCC[C@@H]3c3cc(F)ccc3F)nc12)N1CC[C@H](O)C1 [larotrectinib]
inhibition at 1 µM [8, 16]: 1%

CO[C@@H]1[C@H](N(C)C(=O)c2ccccc2)C[C@H]2O[C@]1(C)n1c3ccccc3c3c4c(c5c6ccccc6n2c5c31)C(=O)NC4 [midostaurin]
%-inhibition BLK [1, 9]: 84% | %-inhibition at 1 µmol/L, FGR [2, 10]: 93% | %-inhibition at 1 µmol/L, PLK1 [3, 11]: 6% | %-inhibition, NEK1 [4, 12]: 13% | %-inhibition, NEK2 [5, 13]: 0.207% | %-inhibition at 1 µmol/L, PDGFRβ [6, 14]: 100% | %-inhibition at 1 µmol/L, WNK2 [7, 15]: 0.935%

C=CC(=O)Nc1cc(Nc2nccc(-c3cn(C)c4ccccc34)n2)c(OC)cc1N(C)CCN(C)C [osimertinib]
%-inhibition BLK [1, 9]: 66% | %-inhibition at 1 µmol/L, FGR [2, 10]: 5.61% | %-inhibition at 1 µmol/L, PLK1 [3, 11]: -0.476% | %-inhibition, NEK1 [4, 12]: 2.43% | %-inhibition, NEK2 [5, 13]: 8% | %-inhibition at 1 µmol/L, PDGFRβ [6, 14]: 87% | %-inhibition at 1 µmol/L, WNK2 [7, 15]: 4.6%

CCN1C(=O)N(c2c(F)c(OC)cc(OC)c2F)Cc2cnc3[nH]c(CN4CCOCC4)cc3c21 [pemigatinib]
inhibition at 1 µM [8, 16]: 21%

CO[C@]1(C(=O)N[C@@H](C)c2ccc(-n3cc(F)cn3)nc2)CC[C@H](c2nc(C)cc(Nc3cc(C)[nH]n3)n2)CC1 [pralsetinib]
inhibition at 1 µM [8, 16]: 50%

COc1ccc(CN2C3CC2CN(c2ccc(-c4cc(OCC(C)(C)O)cn5ncc(C#N)c45)cn2)C3)cn1 [selpercatinib]
inhibition at 1 µM [8, 16]: 8.44%

Cn1cnc2c(F)c(Nc3ccc(Br)cc3Cl)c(C(=O)NOCCO)cc21 [selumetinib]
inhibition at 1 µM [8, 16]: 9.49%

CC(=O)Nc1cccc(-n2c(=O)n(C3CC3)c(=O)c3c(Nc4ccc(I)cc4F)n(C)c(=O)c(C)c32)c1 [trametinib]
%-inhibition BLK [1, 23]: -2.79% | %-inhibition at 1 µmol/L, FGR [2, 17]: -9% | %-inhibition at 1 µmol/L, PLK1 [3, 18]: -9% | %-inhibition, NEK1 [4, 19]: -5% | %-inhibition, NEK2 [5, 20]: 2.76% | %-inhibition at 1 µmol/L, PDGFRβ [6, 21]: 3.44% | %-inhibition at 1 µmol/L, WNK2 [7, 22]: 1.45%

Cc1cc(Nc2ncnc3ccc(NC4=NC(C)(C)CO4)cc23)ccc1Oc1ccn2ncnc2c1 [tucatinib]
inhibition at 1 µM [8, 16]: 4%

CCCS(=O)(=O)Nc1ccc(F)c(C(=O)c2c[nH]c3ncc(-c4ccc(Cl)cc4)cc23)c1F [vemurafenib]
%-inhibition BLK [1, 23]: 52% | %-inhibition at 1 µmol/L, FGR [2, 17]: 93% | %-inhibition at 1 µmol/L, PLK1 [3, 18]: -4% | %-inhibition, NEK1 [4, 19]: -2.74% | %-inhibition, NEK2 [5, 20]: -1% | %-inhibition at 1 µmol/L, PDGFRβ [6, 21]: 33% | %-inhibition at 1 µmol/L, WNK2 [7, 22]: 13%
